From patent US20100010039A1, “POLYMORPHIC CRYSTAL FORM OF A INDAN-2-YLAMINO-HYDROXYETHYL-QUINOLINONE MALEATE DERIVATIVE AS BETA-ADRENOCEPTOR AGONIST” (priority 2006, published 2010)
Counter-ions that a name gives are not always drawn. Marks after values point to notes of the source that are not given here.

Columns and labels:
Assay type in all cases: physicochemical
[1] = Stress testing: 1 month, 60° C. open container, relative humidity <30% (physico-chemical stability comparison); conditions: for Assay (HPLC), 1 month / Related substances (HPLC), 1 month / TG (moisture content), 1 month / XRPD (identity of the material), 1 month: after 1 month, 60° C. open, R.H. <30%; for Assay (HPLC), 1 month / Related substances (HPLC), 1 month / TG (moisture content), 1 month / XRPD (identity of the material), 1 month / Related substances (HPLC), Initial / Assay (HPLC), Initial / TG (moisture content), Initial / XRPD (identity of the material), Initial / Proneness to degradation on storage (in words): maleate; for Related substances (HPLC), Initial / Assay (HPLC), Initial / TG (moisture content), Initial / XRPD (identity of the material), Initial: before storage; for Related substances (HPLC), Initial: Qalpha value from release analysis, Amorphous value from recontrol analysis; for Assay (HPLC), Initial / TG (moisture content), Initial / XRPD (identity of the material), Initial: release / recontrol analysis; for Proneness to degradation on storage (in words): summary of both stress tests (Tables 5 and 6), 1 month, 60° C.
Procedure: (§1) Samples of crystal form Qalpha and amorphous (R)-5-[2-(5,6-diethyl-indan-2-ylamino)-1-hydroxyethyl]-8-hydroxy-1H-quinolin-2-one maleate are stress tested before and after storage for 1 month to provide for physico-chemical stability comparison.
(§2) In a first test the samples are stored at 60° C. in an open container with a relative humidity <30%. In a second test the samples are stored at 60° C. in an open container with a relative humidity of about 75%. The results are shown in Tables 5 and 6 below respectively.
(§3) The tests determine (a) purity and (b) assay as determined by high performance liquid chromatography (HPLC) using HP1100 from Agillent with a YMC-packs ODS-AQ 3 μm column; (c) identity of the material as determined by the X-ray diffraction pattern measured using a SCINTAG™ X-ray diffractometer with a CuK alpha radiation source (45 kV, 40 mA); and (d) moisture content determined using a TGA851e Mettler Toledo STAR System thermogravimetry analysis balance with nitrogen flow 50 ml/min.

[2] = Solubility behaviour / kinetic of dissolution in comparison to the amorphous part
[3] = Stress testing: 1 month, 60° C./75% RH open container (physico-chemical stability comparison); conditions: for XRPD (identity of the material), 1 month / Assay (HPLC), 1 month / Related substances (HPLC), 1 month / TG (moisture content), 1 month: after 1 month, 60° C./75% RH open; for Assay (HPLC), 1 month / Related substances (HPLC), 1 month / TG (moisture content), 1 month / Assay (HPLC), Initial / Related substances (HPLC), Initial / TG (moisture content), Initial / XRPD (identity of the material), Initial: maleate; for Assay (HPLC), Initial / Related substances (HPLC), Initial / TG (moisture content), Initial / XRPD (identity of the material), Initial: before storage, release / recontrol analysis
Procedure: as §1, §2, §3

With `CCc1cc2c(cc1CC)CC(NC[C@H](O)c1ccc(O)c3[nH]c(=O)ccc13)C2` [Qalpha, (R)-5-[2-(5,6-diethyl-indan-2-ylamino)-1-hydroxyethyl]-8-hydroxy-1H-quinolin-2-one maleate] the “Assay (HPLC), 1 month” value [1] was 98.8%, the “Related substances (HPLC), 1 month” value [1] was 0.25% and the “TG (moisture content), 1 month” value [1] was under 0.05%. The “XRPD (identity of the material), 1 month” value [1] was “Qalpha”, the “Related substances (HPLC), Initial” value [1] was 0.23%* and the “Assay (HPLC), Initial” value [1] was 100.2%*. The “TG (moisture content), Initial” value [1] was 0.07%*, the “XRPD (identity of the material), Initial” value [1] was “Qalpha*” and the “Changes after storage (in words)” value ([1]; storage for 1 month, both stress tests) was “No significant changes”. The “Proneness to degradation on storage (in words)” value ([1]; listed as crystal form Qalpha) was “less prone to degradation or conversion than the amorphous form on storage”, the “Solubility behaviour: kinetic of dissolution (in words)” value [2] was “lower kinetic of dissolution” and the “XRPD (identity of the material), 1 month” value [3] was “Qalpha”. The “Assay (HPLC), 1 month” value [3] was 99.5%, the “Related substances (HPLC), 1 month” value [3] was 0.26% and the “TG (moisture content), 1 month” value [3] was under 0.05%. For the same molecule, the “Assay (HPLC), Initial” value [3] was 100.2%*, the “Related substances (HPLC), Initial” value [3] was 0.23%* and the “TG (moisture content), Initial” value [3] was 0.07%*. The “XRPD (identity of the material), Initial” value [3] was “Qalpha*”.
In the case of `CCc1cc2c(cc1CC)CC(NC[C@H](O)c1ccc(O)c3[nH]c(=O)ccc13)C2` [Amorphous, (R)-5-[2-(5,6-diethyl-indan-2-ylamino)-1-hydroxyethyl]-8-hydroxy-1H-quinolin-2-one maleate, reference compound], the “Assay (HPLC), 1 month” value [1] is reported as 91.5%, the “Related substances (HPLC), 1 month” value [1] is reported as 4.3% and the “TG (moisture content), 1 month” value [1] is reported as 0.74%. The “XRPD (identity of the material), 1 month” value [1] was “Amorphous”, the “Related substances (HPLC), Initial” value [1] was 0.22%# and the “Assay (HPLC), Initial” value [1] was 99.7%#. For the same molecule, the “TG (moisture content), Initial” value [1] was 1.8%#, the “XRPD (identity of the material), Initial” value [1] was “Amorphous#” and the “Proneness to degradation on storage (in words)” value ([1]; listed as amorphous material) was “more prone to degradation than Qalpha”. For the same molecule, the “XRPD (identity of the material), 1 month” value [3] was “Qalpha”, the “Assay (HPLC), 1 month” value [3] was 98.9% and the “Related substances (HPLC), 1 month” value [3] was 0.73%. The “TG (moisture content), 1 month” value [3] was 0.23%, the “Assay (HPLC), Initial” value [3] was 99.7%# and the “Related substances (HPLC), Initial” value [3] was 0.22%#. The “TG (moisture content), Initial” value [3] was 1.8%#, the “XRPD (identity of the material), Initial” value [3] was “Amorphous#” and the “Conversion of solid form on storage (in words)” value ([3]; stored at 60° C./75% R.H.) was “converts to crystal form Qalpha”.
